Values quoted from earlier work as cited in US20230357519A1, “REMOVAL OF ODORANTS FROM POST-CONSUMER POLYOLEFIN WASTE” (Borealis AG, priority 2020, published 2023).

Conditions: octanol/water; not determined experimentally, generally accepted literature values

| SMILES | log Poctanol/water |
| --- | --- |
| CC(O)C(C)O (centres unmarked) [2,3-Butanediol] | −0.92^1 |
| CCCCC(C)CCCC(C)C (centres unmarked) [2,6-Dimethyl decane] | 6.09^6 |
| CCCCC(CC)CO (centres unmarked) [2-Ethyl-1-hexanol] | 2.73^3 |
| C=C(C)[C@H]1CC=C(C)CC1 [D-Limonene] | 4.57^4 |

Other lines, results leading:

| log Poctanol/water | SMILES |
| --- | --- |
| 3.16^2 | CCCCCCCC(C)=O [2-Nonanone] |
| 0.84^2 | CCCC(C)=O [2-Pentanone] |
| 5.03^5 | CCCCC(CCCC)CC(C)C [5-(2-Methylpropyl)-nonane] |
| 3.05^2 | C=Cc1ccccc1 [Styrene] |
